# Assays:
# [1] = test system: ischemia/reperfusion injury of the optic nerve induced by endothelin-1 (ET-1) in rabbits; test: Ophthalmic artery resistive index (OA-RI) by ecocolor Doppler in ET-1 ischemia/reperfusion rabbit model; assay type: in vivo, New Zealand white (NZW) rabbits; set-up: key: Pourcelot resistive index = (PSV−EDV)/PSV; conditions: for Ophthalmic artery resistive index (OA-RI), Baseline: prior to ET-1 dosing and prior to test item
# Procedure: (§1) This series of experiments were performed to determine the effect of Compound (I) on ocular vascular reactivity i.e. ophthalmic artery resistive index (OA-RI) and, consequently, on retinal function after repeated ocular topical dosing in a well-defined model of ischemia/reperfusion injury of the optic nerve induced by the retrobulbar injection of endothelin-1 (ET-1) in rabbits.
# (§2) Adult male New Zealand white (NZW) rabbits weighting 1.5-2.0 kg were used. The animals were kept in individual cages, food and water were provided ad libitum. The ischaemia/reperfusion lesion of the optic nerve was obtained by subtenonian injection twice a week with 500 μL of 250 nM ET-1 (Fluka, Israel) in water using a lacrimal cannula under anesthesia produced by ketamine (20 mg/kg, Lobotor, ACME, 100 mg/ml) and xilazine (5 mg/kg, Sedaxylan 2%, Dechra Veterinary Products S.r.l) intramuscularly. Animals were treated with ET-1 for 6 weeks. Compound (I) 0.1% (1 mg/mL) solution or vehicle were administered as eye drop (30 μL/eye), twice a day (around 10:00 AM and 4:00 PM) starting 2 weeks after ET-1 first dosing until the end of the experiment.
# Ophthalmic Artery Resistive Index (OA-RI) was estimated using an ecocolor Doppler DynaView™ II SSD-1700 (Aloka Holding Europe AG, Milan, Italy) prior to ET-1 treatment (baseline, time 0), and weekly thereafter until the end of the study. From week 2 to week 4, morning dosing with test article or vehicle were omitted on the day of hemodynamic measurements in order to have virtually drug-free conditions (16-18 h post last dose) at the time of testing. Pourcelot resistive index for ophthalmic artery (OA-RI) was calculated as following: (PSV−EDV)/PSV where PSV and EDV refer to Peak Systolic Velocity and End Diastolic Velocity, respectively.
# [2] = test system: ischemia/reperfusion injury of the optic nerve induced by endothelin-1 (ET-1) in rabbits; test: Electroretinogram (ERG) in ET-1 ischemia/reperfusion rabbit model; assay type: in vivo, New Zealand white (NZW) rabbits
# Procedure: as §1, §2
# Electroretinogram (ERG). Topical anesthesia was applied using one drop […] oxybuprocaine hydrochloride, 4 mg/ml. The eyes were then dilated by topical application of tropicamide 1% and, when needed, adapted to darkness for at least 2 hours prior to standard ERGs recording in both eyes using contact lens corneal electrodes so to have sufficiently stable and amplified recordings. The ERG signals [(amplitude, microvolts (μV)] were recorded using Retimax (CSO, Florence, Italy) and according to the current International Society for Clinical Electrophysiology (ISCEV) indications; specifically, the dark-adapted 0.01 ERG (rod response), dark-adapted 3.0 ERG (combined rod-cone response) and, light-adapted 3.0 (cone response) were recorded. Flashes intensity varied: • a) from 0.01 photopic cd·s·m^−2 to 0.025 scotopic candela-seconds per meter squared (cd·s·m^−2) with a minimum interval between flashes of 2 s for the dark-adapted 0.01 ERG; • b) from 3.0 photopic cd·s·m^−2 to 7.5 scotopic cd·s·m^−2 with a minimum interval between flashes of 10 s for the dark-adopted 3.0 ERG • c) from 3.0 photopic cd·s·m^−2 to 7.5 scotopic cd·s·m^−2 with a minimum interval between flashes of 0.5 s and a light adaptation strength of 30 cd·s·m^−2 for the light-adopted 3.0 ERG. In all cases ERG recordings lasted 250 ms. […].
# Measurements were taken prior ET-1 first dose (baseline, time 0) and then at the end of week-2 (prior to vehicle- or Compound (I) first day-first dose) and at the end of week-6 (36 h after vehicle or Compound (I)-last day-last dose).
# [3] = test system: patients with open-angle glaucoma or ocular hypertension; test: Phase 2 clinical trial, reduction of elevated intraocular pressure (IOP); assay type: in vivo, human
# Procedure: The efficacy of Compound (I) for the reduction of elevated intraocular pressure (IOP) was evaluated in a Phase 2 clinical trial conducted in 433 patients with open-angle glaucoma or ocular hypertension, treated once daily for 27 days.
# [4] = test system: subjects with open-angle glaucoma or ocular hypertension, non-study eyes with normal IOP; conditions: 0.024% once daily in the evening up to 12 months, cited from earlier work
# [5] = 0.1% solution, 30 μL/eye eye drop bid
# [6] = 0.1% solution, 30 μL/eye eye drop bid, listed as Cpd (1)
# [7] = 0.1% solution, 30 μL/eye bid, 36 h after last dose, ± S.E.M
# [8] = after 2 weeks ET-1, prior to first dose of test item, ± S.E.M
# [9] = prior to ET-1 and test item, ± S.E.M
compound,measurement,setting,value
"CCNC(=O)CCC/C=C\C[C@@H]1[C@@H](/C=C/[C@H](CCc2ccccc2)OC(=O)CCCCCO[N+](=O)[O-])[C@H](O)C[C@@H]1O [Compound (I), Hexanoic acid, 6-(nitrooxy)-, (1S,2E)-3-[(1R,2R,3S,5R)-2-[(2Z)-7-(ethylamino)-7-oxo-2-hepten-1-yl]-3,5-dihydroxycyclopentyl]-1-(2-phenylethyl)-2-propen-1-yl ester]","Ophthalmic artery resistive index (OA-RI), ET-1 (3-weeks) + Test items (1 week daily bid)",[1]; [5],0.35 ± 0.03
same,"Ophthalmic artery resistive index (OA-RI), ET-1 (4-weeks) + Test items (2 weeks daily bid)",[1]; [5],0.32 ± 0.03
same,"Ophthalmic artery resistive index (OA-RI), ET-1 (5 weeks) + Test items (3 weeks daily bid)",[1]; [5],0.32±0.03
same,"Ophthalmic artery resistive index (OA-RI), ET-1 (6 weeks) + Test items (4 weeks daily bid)",[1]; [5],0.33±0.02
same,"Ophthalmic artery resistive index (OA-RI), ET-1 (5 weeks) + Test items (3 weeks daily bid)",[1]; [6],0.32 ± 0.03
same,"Ophthalmic artery resistive index (OA-RI), ET-1 (6 weeks) + Test items (4 weeks daily bid)",[1]; [6],0.33 ± 0.02
same,"Ophthalmic artery resistive index (OA-RI), ET-1 (2 weeks)","[1]; after 2 weeks ET-1, prior to first dose of test item",0.36 ± 0.03
same,"Ophthalmic artery resistive index (OA-RI), Baseline",[1],0.30±0.02
same,"Ophthalmic artery resistive index (OA-RI), Baseline",[1]; listed as Cpd (1),0.30 ± 0.02
same,"ERG Amplitude, Dark adapted 0.01 (Rod response), ET-1 (6 weeks) + Test items (4 weeks daily bid)",[2]; [7],44.3 ± 4.5 μV
same,"ERG Amplitude, Dark adapted 3.0 (Rod/cone response), ET-1 (6 weeks) + Test items (4 weeks daily bid)",[2]; [7],122.8 ± 11.4 μV
same,"ERG Amplitude, Light adapted 3.0 (cone response), ET-1 (6 weeks) + Test items (4 weeks daily bid)",[2]; [7],64.2 ± 6.8 μV
same,"ERG Amplitude, Dark adapted 0.01 (Rod response), ET-1 (2 weeks)",[2]; [8],37.6 ± 6.2 μV
same,"ERG Amplitude, Dark adapted 3.0 (Rod/cone response), ET-1 (2 weeks)",[2]; [8],96.6 ± 9.4 μV
same,"ERG Amplitude, Light adapted 3.0 (cone response), ET-1 (2 weeks)",[2]; [8],60.2 ± 4.3 μV
same,Impairment in the ERG wave amplitude versus vehicle,"[2]; eyes treated for 4 weeks, dark-adapted 0.01, dark-adapted 3.0 and Light-adapted 3.0",significantly (p<0.05) less impairment
same,"ERG Amplitude, Dark adapted 0.01 (Rod response), Baseline",[2]; [9],42.3 ± 6.9 μV
same,"ERG Amplitude, Dark adapted 3.0 (Rod/cone response), Baseline",[2]; [9],118.0 ± 10.3 μV
same,"ERG Amplitude, Light adapted 3.0 (cone response), Baseline",[2]; [9],67.6 ± 6.4 μV
same,"Conjunctival hyperemia, treated patients","[3]; Phase 2, highest dose tested",16.8%
same,Tolerability,"[3]; Phase 2, once daily for 27 days",well tolerated
O=C(CCC/C=C\C[C@@H]1[C@@H](CC[C@@H](O)CCc2ccccc2)[C@H](O)C[C@@H]1O)OCCCCO[N+](=O)[O-] [Latanoprostene Bunod],"IOP lowering from baseline, Japanese population",[4]; fellow eyes with baseline IOP ≤19 mmHg,3.2-3.9 mmHg
same,"IOP lowering from baseline, Caucasian population",[4]; fellow eyes with baseline IOP ≤21 mmHg,4.2-4.9 mmHg
